Experimental data from ChEMBL document CHEMBL1201862, “PubChem BioAssay data set” (2004).
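Compound exposure: 48 hours, 5 concentrations, 96-well plates. GI50: concentration for 50% inhibition of growth.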 Active and inactive are the calls of the source. No stated cut-off is given here; in the data, active = GI50 up to about 1.1 µM and inactive = higher.

Tests used:
Assay in all cases: growth of human tumour cells (NCI), 48 h
[1] = test system: SK-MEL-28
[2] = test system: MDA-MB-231
[3] = test system: HCT-15
[4] = test system: UACC-62
[5] = test system: SF-295
[6] = test system: SN12C
[7] = test system: MDA-MB-435
[8] = test system: RXF 393
[9] = test system: Hs-578T
[10] = test system: MOLT-4
[11] = test system: SK-MEL-5
[12] = test system: OVCAR-3
[13] = test system: Malme-3M
[14] = test system: ACHN
[15] = test system: 786-0
[16] = test system: K562
[17] = test system: SF-268
[18] = test system: HOP-62
[19] = test system: SR
[20] = test system: HL-60
[21] = test system: OVCAR-8
[22] = test system: MDA-N
[23] = test system: CAKI-1
[24] = test system: SK-OV-3
[25] = test system: A498
[26] = test system: OVCAR-5
[27] = test system: NCI-H460
[28] = test system: HCC 2998
[29] = test system: HT-29
[30] = test system: PC-3
[31] = test system: SK-MEL-2
[32] = test system: NCI-H23
[33] = test system: UACC-257
[34] = test system: T47D
[35] = test system: OVCAR-4
[36] = test system: SNB-75
[37] = test system: SF-539
[38] = test system: IGROV-1
[39] = test system: CCRF-CEM
[40] = test system: U-251
[41] = test system: SNB-19
[42] = test system: A549
[43] = test system: NCI-H522
[44] = test system: DU-145
[45] = test system: BT-549
[46] = test system: NCI-H226
[47] = test system: EKVX
[48] = test system: SW-620
[49] = test system: HOP-92
[50] = test system: KM12
[51] = test system: HCT-116
[52] = test system: M14
[53] = test system: TK-10
[54] = test system: COLO 205
[55] = test system: NCI/ADR-RES
[56] = test system: MCF7
[57] = test system: RPMI-8226
[58] = test system: LOX IMVI
[59] = test system: UO-31

## C=C1C(=O)OC2CC3(CO3)C3C(O)C(O)CC3(C)CC12 (stereo not drawn)
[1]
  GI50: 17.4 µM (inactive)
[2]
  GI50: 28.6 µM (inactive)
[3]
  GI50: 17 µM
[4]
  GI50: 16.6 µM (inactive)
[5]
  GI50: > 100 µM (inactive)
[6]
  GI50: 24.4 µM (inactive)
[7]
  GI50: 25.4 µM (inactive)
[8]
  GI50: 16.7 µM (inactive)
[9]
  GI50: 81.3 µM (inactive)
[10]
  GI50: 17.8 µM (inactive)
[11]
  GI50: 19 µM (inactive)
[12]
  GI50: 21.9 µM (inactive)
[13]
  GI50: 18.2 µM (inactive)
[14]
  GI50: 19.7 µM (inactive)
[15]
  GI50: 76.9 µM (inactive)
[16]
  GI50: 27.5 µM (inactive)
[17]
  GI50: 40.3 µM (inactive)
[18]
  GI50: 61.9 µM (inactive)
[19]
  GI50: 20.8 µM (inactive)
[20]
  GI50: 12.7 µM (inactive)
[21]
  GI50: 22.3 µM (inactive)
[22]
  GI50: 23.4 µM (inactive)
[23]
  GI50: 20.3 µM (inactive)
[24]
  GI50: > 100 µM (inactive)
[25]
  GI50: 28.4 µM (inactive)
[26]
  GI50: 27.7 µM (inactive)
[27]
  GI50: 34.9 µM (inactive)
[28]
  GI50: 17.3 µM (inactive)
[29]
  GI50: 30.5 µM (inactive)
[30]
  GI50: 45.8 µM (inactive)
[31]
  GI50: 16 µM (inactive)
[32]
  GI50: 22.3 µM (inactive)
[33]
  GI50: 39.2 µM (inactive)
[34]
  GI50: 30.9 µM (inactive)
[35]
  GI50: 76.6 µM (inactive)
[36]
  GI50: 49.8 µM (inactive)
[37]
  GI50: 19.1 µM (inactive)
[38]
  GI50: 35.6 µM (inactive)
[39]
  GI50: 15.2 µM (inactive)
[40]
  GI50: 43 µM (inactive)
[41]
  GI50: > 100 µM (inactive)
[42]
  GI50: 40.9 µM (inactive)
[43]
  GI50: 12.3 µM (inactive)
[44]
  GI50: 34.4 µM (inactive)
[45]
  GI50: 18.1 µM (inactive)
[46]
  GI50: > 100 µM (inactive)
[47]
  GI50: 18.3 µM (inactive)
[48]
  GI50: 16.6 µM (inactive)
[49]
  GI50: 27.6 µM (inactive)
[50]
  GI50: 32.9 µM (inactive)
[51]
  GI50: 18.2 µM (inactive)
[52]
  GI50: 16.4 µM (inactive)
[53]
  GI50: 35.6 µM (inactive)
[54]
  GI50: 29.9 µM (inactive)
[55]
  GI50: 38.8 µM (inactive)
[56]
  GI50: 21 µM (inactive)
[57]
  GI50: 30.9 µM (inactive)
[58]
  GI50: 8.24 µM (inactive)

## O=c1c2cc3c(cc2[nH]c2ncccc12)OCO3
[1]
  GI50: > 10 µM (inactive)
[2]
  GI50: > 10 µM (inactive)
[3]
  GI50: > 10 µM
[4]
  GI50: > 10 µM (inactive)
[5]
  GI50: > 10 µM (inactive)
[6]
  GI50: > 10 µM (inactive)
[7]
  GI50: > 10 µM (inactive)
[8]
  GI50: > 10 µM (inactive)
[9]
  GI50: > 10 µM (inactive)
[10]
  GI50: > 10 µM (inactive)
[11]
  GI50: > 10 µM (inactive)
[12]
  GI50: > 10 µM (inactive)
[13]
  GI50: > 10 µM (inactive)
[14]
  GI50: > 10 µM (inactive)
[15]
  GI50: > 10 µM (inactive)
[16]
  GI50: > 10 µM (inactive)
[17]
  GI50: > 10 µM (inactive)
[18]
  GI50: > 10 µM (inactive)
[19]
  GI50: > 10 µM (inactive)
[20]
  GI50: > 10 µM (inactive)
[21]
  GI50: > 10 µM (inactive)
[22]
  GI50: > 10 µM (inactive)
[23]
  GI50: > 10 µM (inactive)
[24]
  GI50: > 10 µM (inactive)
[25]
  GI50: > 10 µM (inactive)
[26]
  GI50: > 10 µM (inactive)
[27]
  GI50: > 10 µM (inactive)
[28]
  GI50: > 10 µM (inactive)
[29]
  GI50: > 10 µM (inactive)
[30]
  GI50: > 10 µM (inactive)
[31]
  GI50: > 10 µM (inactive)
[32]
  GI50: > 10 µM (inactive)
[33]
  GI50: > 10 µM (inactive)
[34]
  GI50: > 10 µM (inactive)
[35]
  GI50: > 10 µM (inactive)
[36]
  GI50: > 10 µM (inactive)
[37]
  GI50: > 10 µM (inactive)
[38]
  GI50: > 10 µM (inactive)
[39]
  GI50: > 10 µM (inactive)
[40]
  GI50: > 10 µM (inactive)
[41]
  GI50: > 10 µM (inactive)
[42]
  GI50: > 10 µM (inactive)
[43]
  GI50: > 10 µM (inactive)
[44]
  GI50: > 10 µM (inactive)
[45]
  GI50: > 10 µM (inactive)
[46]
  GI50: > 10 µM (inactive)
[47]
  GI50: > 10 µM (inactive)
[48]
  GI50: > 10 µM (inactive)
[49]
  GI50: > 10 µM (inactive)
[50]
  GI50: > 10 µM (inactive)
[51]
  GI50: > 10 µM (inactive)
[52]
  GI50: > 10 µM (inactive)
[53]
  GI50: > 10 µM (inactive)
[54]
  GI50: > 10 µM (inactive)
[55]
  GI50: > 10 µM (inactive)
[56]
  GI50: > 10 µM (inactive)
[57]
  GI50: > 10 µM (inactive)
[58]
  GI50: > 10 µM (inactive)

## CC1(C)Oc2ccc(NC(=O)CCC(N)C(=O)O)cc2O1 (stereo not drawn)
[1]
  GI50: > 100 µM (inactive)
[2]
  GI50: > 100 µM (inactive)
[3]
  GI50: > 100 µM
[4]
  GI50: > 100 µM (inactive)
[5]
  GI50: > 100 µM (inactive)
[6]
  GI50: > 100 µM (inactive)
[7]
  GI50: > 100 µM (inactive)
[8]
  GI50: > 100 µM (inactive)
[9]
  GI50: > 100 µM (inactive)
[10]
  GI50: > 100 µM (inactive)
[11]
  GI50: > 100 µM (inactive)
[12]
  GI50: > 100 µM (inactive)
[13]
  GI50: > 100 µM (inactive)
[14]
  GI50: > 100 µM (inactive)
[15]
  GI50: > 100 µM (inactive)
[16]
  GI50: > 100 µM (inactive)
[18]
  GI50: > 100 µM (inactive)
[19]
  GI50: > 100 µM (inactive)
[20]
  GI50: > 100 µM (inactive)
[21]
  GI50: > 100 µM (inactive)
[22]
  GI50: > 100 µM (inactive)
[23]
  GI50: > 100 µM (inactive)
[24]
  GI50: > 100 µM (inactive)
[25]
  GI50: > 100 µM (inactive)
[26]
  GI50: > 100 µM (inactive)
[27]
  GI50: > 100 µM (inactive)
[28]
  GI50: > 100 µM (inactive)
[29]
  GI50: > 100 µM (inactive)
[30]
  GI50: > 100 µM (inactive)
[31]
  GI50: > 100 µM (inactive)
[32]
  GI50: > 100 µM (inactive)
[34]
  GI50: > 100 µM (inactive)
[35]
  GI50: > 100 µM (inactive)
[36]
  GI50: > 100 µM (inactive)
[37]
  GI50: > 100 µM (inactive)
[38]
  GI50: > 100 µM (inactive)
[39]
  GI50: > 100 µM (inactive)
[40]
  GI50: > 100 µM (inactive)
[41]
  GI50: > 100 µM (inactive)
[59]
  GI50: > 100 µM (inactive)
[42]
  GI50: > 100 µM (inactive)
[43]
  GI50: > 100 µM (inactive)
[44]
  GI50: > 100 µM (inactive)
[45]
  GI50: > 100 µM (inactive)
[46]
  GI50: > 100 µM (inactive)
[47]
  GI50: > 100 µM (inactive)
[48]
  GI50: > 100 µM (inactive)
[49]
  GI50: > 100 µM (inactive)
[50]
  GI50: > 100 µM (inactive)
[51]
  GI50: > 100 µM (inactive)
[52]
  GI50: > 100 µM (inactive)
[53]
  GI50: > 100 µM (inactive)
[54]
  GI50: > 100 µM (inactive)
[55]
  GI50: > 100 µM (inactive)
[56]
  GI50: > 100 µM (inactive)
[57]
  GI50: > 100 µM (inactive)
[58]
  GI50: > 100 µM (inactive)
